Test results published in patent publication US20210332139A1, “MODULATION OF LEUKOCYTE ACTIVITY IN TREATMENT OF NEUROINFLAMMATORY DEGENERATIVE DISEASE” (Leuvas Therapeutics, priority 2013, published 2021).
Values joined by “and” are separate entries in the source; they are usually repeats but may differ in a detail not shown here. Equal values may be shown once.

Experiments:
Assay type in all cases: cell-based
human neutrophils [1] = assay: Rapid adhesion of human neutrophils to fibrinogen and ICAM-1; conditions: mean+/−SD
From the text: (§1) All data are expressed as the mean+/−SD of bound cells in 0.2 mm^2 from three independent experiments made in duplicate.

mouse neutrophils [2] = assay: Rapid adhesion of mouse neutrophils to fibrinogen and ICAM-1; conditions: mean+/−SD
From the text: as §1

neutrophils = assay: Rapid adhesion of neutrophils, soluble versus fibrillary Aβ1-42; conditions: mean+/−SD
From the text: Although two-times less efficient than the soluble form, fibrillary Aβ triggered a significant increase of rapid neutrophil adhesion on both ICAM-1 and fibrinogen (Table 8; data are expressed as the mean+/−SD of bound cells in 0.2 mm^2 from three independent experiments made in duplicate).

human neutrophils [3] = assay: Rapid human neutrophil adhesion to ICAM-1, inhibition by bocMLF and PTx; conditions: oligomeric Aβ, 2 minutes
Experimental: (§2) It is known that one of the receptors for Aβ is the receptor for fMLP, formylpeptide chemotactic receptor (FPR). To evaluate the contribution of this GPCR receptor on Aβ-dependent neutrophil adhesion, we inhibited its function using boc-MLF, a formyl-peptide chemotactic receptor antagonist. Human neutrophils were incubated for 2 minutes with buffer (control) or with oligomeric Aβ. 0.1 μM fMLP was used as a positive control. Values are expressed as the mean counts of bound cells in 0.2 mm^2 from three independent experiments in duplicate. Error bars represent SD. […] To exclude the possibility that rapid adhesion triggering was a consequence of a generic plasma membrane alteration due to the lipophilic nature of Aβ, we evaluated rapid adhesion in lymphocytes, which are known to lack fMLP receptors.

lymphocytes = assay: Rapid adhesion in lymphocytes; conditions: lymphocytes lack fMLP receptors, result in words
Experimental: as §2

LFA-1 = LFA-1 affinity state in human neutrophils (conformer-specific antibodies, cytofluorimetry); conditions: 20 μM, 10 s, mean fluorescence intensity, ctrl = 1
From the text: Neutrophil arrest is rapidly triggered by chemokines or other chemoattractants and is mediated by the binding of LFA-1 integrin to its vascular ligand ICAM-1. Ligation of specific heterotrimeric GPCRs by chemokines induces integrins to undergo a dramatic transition from a bent low-affinity conformation to extended intermediate- and high-affinity conformations, which leads to opening of the ligand-binding pocket. We hypothesized that Aβ may trigger intermediate and/or high affinity state of LFA-1 integrin and studied the effect of Aβ1-42 oligomers on human LFA-1 affinity using KIM127 and 327A conformer-specific antibodies for intermediate- and high-affinity state respectively.
The cells were stimulated for 10 s with 0.5 μmol/L of CXCL12, 0.1 μM fMLP, 20 μM Aβ1-42, or 20 μM Aβ42-1 under stirring at 37° C. After rapid washing, cells were stained with FITC-conjugated secondary polyclonal antibody and analyzed by cytofluorimetric quantification. Data are mean fluorescence intensity +/−SD from three independent experiments.

human neutrophils [4] = assay: Isoluminol chemiluminescence ROS assay, human neutrophils; conditions: human neutrophils on fibrinogen, mean+/−SD
Experimental: One of the mechanisms of neuronal damage by beta-amyloid in Alzheimer's disease is the generation of reactive oxygen species (ROS). We determined whether Aβ1-42 oligomers induce ROS production in neutrophils by using a chemiluminescence assay.
(§3) Isoluminol-based chemiluminescence assays were performed in HGCa in the presence of horseradish peroxidase (HRP) and isoluminol (both from Sigma-Aldrich) in a temperature-controlled Multilabel Count Victor X5 (Perkin Elmer). Assays were run in dark 96 well plates precoated with 250 μg/ml human fibrinogen in HGCa containing (final concentration): 100 μM isoluminol and 8 U/ml HRP. After addition of 1×10^5 human neutrophils or 7.5×10^5 mouse neutrophils, plates were left at 37° C. for 5-10 min and the reaction started by addition of the stimulus. Light emission was recorded every minute.
(§4) We used the chemotactic peptide fMLP as positive control. […] Data are mean+/−SD for three independent experiments.

mouse neutrophils [5] = assay: Isoluminol chemiluminescence ROS assay, mouse neutrophils; conditions: mean+/−SD
Experimental: as §3, §4
Data are mean+/−SD counts per second.

human primary PMNs = assay: Static adhesion of human primary PMNs to ICAM-1 with signaling inhibitors; conditions: 10 μM Aβ, 1 min; listed as Aβ oligo
Experimental: As a model system, human primary PMNs were isolated form healthy donors stimulated to very rapid adhesion to purified human ICAM-1, ligand for the β2 integrins LFA-1 and Maci. fMLP (the classical chemoattractant) was the positive control. […] PMNs were treated for 30 min. with different concentrations of inhibitors followed by stimulation for 1 min with 50 nM fMLP or with 10 μM Aβ. The number of adherent cells was quantified by computer-assisted evaluation. Statistical analysis was SD.

## Abeta 1-42: soluble oligomeric amyloid-beta 1-42 peptide used as stimulus
Human neutrophils [1]; 1 μM
  Rapid adhesion to Fibrinogen: 108.0 ± 26.1 bound cells in 0.2 mm^2
  Rapid adhesion to ICAM-1: 156.5 ± 40.9 bound cells in 0.2 mm^2
Human neutrophils [1]; 5 μM
  Rapid adhesion to Fibrinogen: 200.9 ± 48.7 bound cells in 0.2 mm^2
  Rapid adhesion to ICAM-1: 184.0 ± 55.4 bound cells in 0.2 mm^2
Human neutrophils [1]; 10 μM
  Rapid adhesion to Fibrinogen: 285.2 ± 38.9 bound cells in 0.2 mm^2
  Rapid adhesion to ICAM-1: 229.2 ± 43.4 bound cells in 0.2 mm^2
Human neutrophils [1]; 20 μM
  Rapid adhesion to Fibrinogen: 449.1 ± 34.0 bound cells in 0.2 mm^2
  Rapid adhesion to ICAM-1: 281.0 ± 30.7 bound cells in 0.2 mm^2
Mouse neutrophils [2]; 5 μM
  Rapid adhesion to Fibrinogen: 37.13 ± 3.25 bound cells in 0.2 mm^2
  Rapid adhesion to ICAM-1: 149.9 ± 28 bound cells in 0.2 mm^2
Mouse neutrophils [2]; 10 μM
  Rapid adhesion to Fibrinogen: 44.75 ± 3.68 bound cells in 0.2 mm^2
  Rapid adhesion to ICAM-1: 201.9 ± 14.14 bound cells in 0.2 mm^2
Mouse neutrophils [2]; 20 μM
  Rapid adhesion to Fibrinogen: 88.75 ± 7.72 bound cells in 0.2 mm^2
  Rapid adhesion to ICAM-1: 285.3 ± 12.5 bound cells in 0.2 mm^2
Mouse neutrophils [2]; Abeta 1 μM
  Rapid adhesion to Fibrinogen: 8 ± 2.42 bound cells in 0.2 mm^2
  Rapid adhesion to ICAM-1: 27.42 ± 3.59 bound cells in 0.2 mm^2
neutrophils; 15 μM
  Rapid adhesion to Fibrinogen: 180.7 ± 30.7 bound cells in 0.2 mm^2
  Rapid adhesion to ICAM-1: 480.7 ± 61.7 bound cells in 0.2 mm^2
neutrophils; 30 μM
  Rapid adhesion to Fibrinogen: 419.2 ± 30.7 bound cells in 0.2 mm^2
  Rapid adhesion to ICAM-1: 738.5 ± 29.3 bound cells in 0.2 mm^2
Human neutrophils [3]
  Neutrophil adhesion to ICAM-1, stimulus alone (Ctrl, no inhibitor): 490.4 ± 38.9 bound cells in 0.2 mm^2 and 475.5 ± 40.0 bound cells in 0.2 mm^2
lymphocytes
  Adhesion to fibrinogen or to ICAM-1 in lymphocytes: did not induce adhesion
LFA-1
  327A (high-affinity state of LFA-1): 3.29 ± 0.44
  KIM127 (intermediate-affinity state of LFA-1): 2.54 ± 0.12
Human neutrophils [4]; 1 min
  ROS generation (chemiluminescence): 558 ± 112
Human neutrophils [4]; 2 min
  ROS generation (chemiluminescence): 540 ± 106
Human neutrophils [4]; 3 min
  ROS generation (chemiluminescence): 358 ± 132
Human neutrophils [4]; 4 min
  ROS generation (chemiluminescence): 235 ± 61
Human neutrophils [4]; 5 min
  ROS generation (chemiluminescence): 199 ± 76
Mouse neutrophils [5]; 1 min
  ROS generation (chemiluminescence): 226 ± 34 counts per second
Mouse neutrophils [5]; 2 min
  ROS generation (chemiluminescence): 103 ± 17 counts per second
Human primary PMNs
  Adherent hPMNs to ICAM-1, Aβ oligo, Mean, Control (no inhibitor): 464.0 and 500.8 and 464.5 and 455.0 and 475.5 and 470.7
